In patent publication US20130005568A1, “SAFENED HERBICIDAL MIXTURES” (E.I. DU PONT DE NEMOURS AND COMPANY, priority 2011, published 2013):

Legend:
[1] = test system: Pioneer 39K40 hybrid maize; experiment: Test C: visual plant response rating, postemergence acetohydroxy acid synthase-inhibiting herbicides alone and with Compound 1; type: in vivo, Zea mays L. spp. indentata Sturt.; conditions: greenhouse, two weeks, 0-100 scale
Description: (§1) For all of the following biological tests, plant response ratings were based on a 0-100 scale where zero is growth equivalent to that of untreated plants (no plant response) and 100 represents no additional growth occurring after herbicide treatment.
Herbicide mixtures were dissolved/dispersed in a non-phytotoxic liquid carrier and were sprayed postemergence to Pioneer 39K40 hybrid maize (Zea mays L. spp. indentata Sturt.) in the third collar growth stage (extended leaf height was 40-60 cm). Treated plants were grown under greenhouse conditions for two weeks before visual evaluations of plant responses were recorded.

lambsquarters = experiment: Test E: postemergence plant response rating; type: in vivo, Chenopodium album L.; conditions: lambsquarters, postemergence, greenhouse, two weeks, 0-100 scale
Source text: as §1
(§2) Herbicide mixtures were formulated, dissolved/dispersed in water containing 0.25% non-ionic surfactant, sprayed postemergence to the crops: winter wheat (Triticum aestivum L.), spring wheat (Triticum aestivum L.), winter barley (Hordeum vulgare L.) and spring barley (Hordeum vulgare L.), and the weeds: blackgrass (Alopecurus myosuroides Huds.), lambsquarters (Chenopodium album L.) and pigweed (Amaranthus retroflexus L.). Treated plants were grown under greenhouse conditions for two weeks before visual evaluations of plant responses were recorded.

spring wheat = experiment: Test E: postemergence plant response rating; type: in vivo, Triticum aestivum L.; conditions: spring wheat, postemergence, greenhouse, two weeks, 0-100 scale
Source text: as §1, §2

winter wheat [2] = experiment: Test E: postemergence plant response rating; type: in vivo, Triticum aestivum L.; conditions: winter wheat, postemergence, greenhouse, two weeks, 0-100 scale
Source text: as §1, §2

spring barley = experiment: Test E: postemergence plant response rating; type: in vivo, Hordeum vulgare L.; conditions: spring barley, postemergence, greenhouse, two weeks, 0-100 scale
Source text: as §1, §2

winter barley [3] = experiment: Test E: postemergence plant response rating; type: in vivo, Hordeum vulgare L.; conditions: winter barley, postemergence, greenhouse, two weeks, 0-100 scale
Source text: as §1, §2

pigweed = experiment: Test E: postemergence plant response rating; type: in vivo, Amaranthus retroflexus L.; conditions: pigweed, postemergence, greenhouse, two weeks, 0-100 scale
Source text: as §1, §2

winter barley [4] = experiment: Test F: preemergence plant response rating; type: in vivo, Hordeum vulgare L.; conditions: winter barley, preemergence, greenhouse, three weeks, 0-100 scale
Source text: as §1
(§3) Herbicide mixtures were formulated, dissolved/dispersed in water, and sprayed preemergence to the crops: winter wheat (Triticum aestivum L.) and winter barley (Hordeum vulgare L.), and the weed: blackgrass (Alopecurus myosuroides Huds). Treated plants were grown under greenhouse conditions for three weeks before visual evaluations of plant responses were recorded.

blackgrass [5] = experiment: Test E: postemergence plant response rating; type: in vivo, Alopecurus myosuroides Huds.; conditions: blackgrass, postemergence, greenhouse, two weeks, 0-100 scale
Source text: as §1, §2

blackgrass [6] = experiment: Test F: preemergence plant response rating; type: in vivo, Alopecurus myosuroides Huds; conditions: blackgrass, preemergence, greenhouse, three weeks, 0-100 scale
Source text: as §1, §3

winter wheat [7] = experiment: Test F: preemergence plant response rating; type: in vivo, Triticum aestivum L.; conditions: winter wheat, preemergence, greenhouse, three weeks, 0-100 scale
Source text: as §1, §3

[8] = herbicide 35 g ai/ha + Compound 1 125 g ai/ha
[9] = herbicide 17.5 g ai/ha + Compound 1 125 g ai/ha
[10] = herbicide 10 g ai/ha + Compound 1 125 g ai/ha
[11] = herbicide 20 g ai/ha + Compound 1 125 g ai/ha
[12] = herbicide 32 g ai/ha + Compound 1 125 g ai/ha
[13] = herbicide 64 g ai/ha + Compound 1 125 g ai/ha

Compound: COC(=O)c1cccc(C)c1S(=O)(=O)NC(=O)Nc1nc(OCC(F)(F)F)nc(N(C)C)n1 [Triflusulfuron-methyl, triflusulfuron-methyl]
- Observed Response, Herbicide mixture with Compound 1 [1, 8]: 100
- Observed Response, Herbicide alone ([1]; herbicide 35 g ai/ha): 100

Compound: CC(C)C1(C)N=C(c2nc3ccccc3cc2C(=O)O)NC1=O (centres unmarked) [Imazaquin, imazaquin]
- Observed Response, Herbicide mixture with Compound 1 [1, 9]: 100
- Observed Response, Herbicide alone ([1]; herbicide 17.5 g ai/ha): 100

Compound: COC(=O)c1c(Cl)nn(C)c1S(=O)(=O)NC(=O)Nc1nc(OC)cc(OC)n1 [Halosulfuron-methyl, halosulfuron-methyl]
- Observed Response, Herbicide mixture with Compound 1 [1, 9]: 10
- Observed Response, Herbicide alone ([1]; herbicide 17.5 g ai/ha): 37

Compound: COC(=O)c1ccc(C(F)(F)F)nc1S(=O)(=O)NC(=O)Nc1nc(OC)cc(OC)n1 [Flupyrsulfuron-methyl-sodium, flupyrsulfuron-methyl-sodium]
- Observed Response, Herbicide mixture with Compound 1 (lambsquarters; [10]): 83
- Observed Response, Herbicide alone (lambsquarters; herbicide 10 g ai/ha): 78
- Observed Response, Herbicide mixture with Compound 1 (lambsquarters; [11]): 87
- Observed Response, Herbicide alone (lambsquarters; herbicide 20 g ai/ha): 87
- Observed Response, Herbicide mixture with Compound 1 (spring wheat; [10]): 3
- Observed Response, Herbicide alone (spring wheat; herbicide 10 g ai/ha): 18
- Observed Response, Herbicide mixture with Compound 1 (spring wheat; [11]): 0
- Observed Response, Herbicide alone (spring wheat; herbicide 20 g ai/ha): 22
- Observed Response, Herbicide mixture with Compound 1 (winter wheat [2]; [10]): 0
- Observed Response, Herbicide alone (winter wheat [2]; herbicide 10 g ai/ha): 17
- Observed Response, Herbicide mixture with Compound 1 (winter wheat [2]; [11]): 0
- Observed Response, Herbicide alone (winter wheat [2]; herbicide 20 g ai/ha): 18
- Observed Response, Herbicide mixture with Compound 1 (spring barley; [10]): 23
- Observed Response, Herbicide alone (spring barley; herbicide 10 g ai/ha): 47
- Observed Response, Herbicide mixture with Compound 1 (spring barley; [11]): 43
- Observed Response, Herbicide alone (spring barley; herbicide 20 g ai/ha): 53
- Observed Response, Herbicide mixture with Compound 1 (winter barley [3]; [10]): 12
- Observed Response, Herbicide alone (winter barley [3]; herbicide 10 g ai/ha): 42
- Observed Response, Herbicide mixture with Compound 1 (winter barley [3]; [11]): 27
- Observed Response, Herbicide alone (winter barley [3]; herbicide 20 g ai/ha): 42
- Observed Response, Herbicide mixture with Compound 1 (pigweed; [10]): 96
- Observed Response, Herbicide alone (pigweed; herbicide 10 g ai/ha): 100
- Observed Response, Herbicide mixture with Compound 1 (pigweed; [11]): 97
- Observed Response, Herbicide alone (pigweed; herbicide 20 g ai/ha): 99
- Observed Response, Herbicide mixture with Compound 1 (winter barley [4]; [12]): 40
- Observed Response, Herbicide alone (winter barley [4]; herbicide 32 g ai/ha): 75
- Observed Response, Herbicide mixture with Compound 1 (winter barley [4]; [13]): 35
- Observed Response, Herbicide alone (winter barley [4]; herbicide 64 g ai/ha): 90
- Observed Response, Herbicide mixture with Compound 1 (blackgrass [5]; [10]): 99
- Observed Response, Herbicide alone (blackgrass [5]; herbicide 10 g ai/ha): 98
- Observed Response, Herbicide mixture with Compound 1 (blackgrass [5]; [11]): 99
- Observed Response, Herbicide alone (blackgrass [5]; herbicide 20 g ai/ha): 99
- Observed Response, Herbicide mixture with Compound 1 (blackgrass [6]; [12]): 90
- Observed Response, Herbicide alone (blackgrass [6]; herbicide 32 g ai/ha): 95
- Observed Response, Herbicide mixture with Compound 1 (blackgrass [6]; [13]): 97
- Observed Response, Herbicide alone (blackgrass [6]; herbicide 64 g ai/ha): 95
- Observed Response, Herbicide mixture with Compound 1 (winter wheat [7]; [12]): 10
- Observed Response, Herbicide alone (winter wheat [7]; herbicide 32 g ai/ha): 30
- Observed Response, Herbicide mixture with Compound 1 (winter wheat [7]; [13]): 33
- Observed Response, Herbicide alone (winter wheat [7]; herbicide 64 g ai/ha): 40

Compound: COC(=O)c1ccc(CNS(C)(=O)=O)cc1S(=O)(=O)NC(=O)Nc1nc(OC)cc(OC)n1 [Mesosulfuron-methyl, mesosulfuron-methyl]
- Observed Response, Herbicide mixture with Compound 1 [1, 9]: 100
- Observed Response, Herbicide alone ([1]; herbicide 17.5 g ai/ha): 100

Compound: CCCOc1nn(C(=O)[N-]S(=O)(=O)c2ccccc2C(=O)OC)c(=O)n1C.[Na+] [Propoxycarbazone-sodium, propoxycarbazone]
- Observed Response, Herbicide mixture with Compound 1 [1, 8]: 100
- Observed Response, Herbicide alone ([1]; herbicide 35 g ai/ha): 100

Compound: COC(=O)c1ccc(I)cc1S(=O)(=O)NC(=O)Nc1nc(C)nc(OC)n1 [Iodosulfuron-methyl, iodosulfuron-methyl]
- Observed Response, Herbicide mixture with Compound 1 [1, 9]: 57
- Observed Response, Herbicide alone ([1]; herbicide 17.5 g ai/ha): 100

Compound: CCOC(=O)c1ccccc1S(=O)(=O)NC(=O)Nc1nc(Cl)cc(OC)n1 [Chlorimuron-ethyl, chlorimuron-ethyl]
- Observed Response, Herbicide mixture with Compound 1 ([1]; herbicide 8 g ai/ha + Compound 1 125 g ai/ha): 53
- Observed Response, Herbicide alone ([1]; herbicide 8 g ai/ha): 96

Compound: Imazamethabenz
- Observed Response, Herbicide mixture with Compound 1 [1, 9]: 100
- Observed Response, Herbicide alone ([1]; herbicide 17.5 g ai/ha): 100
